The test system of assay [1] is MDA-MB-231BR cells. Nature of the assay: Acetyl-CoA quantification by LC-HRMS. It is filed as cell-based. To be noted: 100 μM, 48 h. As for the experimental part:
(§1) Cells were grown to ∼80% confluency in a 10-cm dish in normal growth medium, 48 h prior to collecting cells, aspirate media and replace with fresh growth media and drug was added at 100 μM. To collect cells, media was aspirated and 1 mL of 10% trichloroacetic acid (w/v) in water was added directly to the cells. Cells were scraped and transferred into a 1.7 mL Eppendorf tube and stored at −80 until labeling. […] Lysates were centrifuged 17,000 g for 10 min at 4°C and supernatant was transferred to a deep-well 96-well plate for loading in a Tomtec Quadra4 liquid handling workstation. On the liquid handling workstation, lysates were applied to an Oasis HLB 96-well elution plate (30 mg of sorbent per well) pre-conditioned and equilibrated with 1 mL of methanol and 1 mL of water, respectively. After de-salting with 1 mL of water, analytes were eluted into a deep-well 96-well plate using 1 mL of 25 mM ammonium acetate in methanol. Eluent was evaporated dried under nitrogen gas. The dried LC-HRMS samples were resuspended in 50 µL of 5% (w/v) sulfosalicylic acid in water. […] A modified gradient using solvent A (5 mM ammonium acetate in water), solvent B (5 mM ammonium acetate in 95:5 (v:v) acetonitrile: water) and solvent C (0.1% (v/v) formic acid in 80:20 (v:v) acetonitrile: water). Data was acquired using XCalibur 4.0 (Thermo Scientific) and analyzed using Tracefinder 5.1 (Thermo Scientific).

The subject of assay [2] is 4T1BR cells. Nature of the assay: Acetyl-CoA quantification by LC-HRMS. To be noted: 100 μM, 48 hours. It is filed as cell-based. As for the experimental part: as §1
The test system of assay [3] is MDA-MB-231BR cells. Nature of the assay: BODIPY staining of lipid droplets. It is filed as cell-based. Conditions: 100 μM, 48 h. On the procedure:
Cells were treated with 5uM BODIPY 493/503 (Invitrogen) and NucBlue® Live reagent (Invitrogen) in PBS for 15 min, washed 2x with 1xPBS, fixed using 4% paraformaldehyde for 30 min at RT in the dark and washed in 1xPBS prior to mounting and imaging on EVOS FL (Life Technologies) using […] for BODIPY and DAPI channel for NucBlue.

In assay [4] the target is T1, ACSS2 (Homo sapiens, UniProt Q9NR19).
T1 construct: His-tag (N); His-tag (C); made in house; host or cells: E. coli BL21 (DE3) RIL
T1 sequence (Q9NR19 whole entry): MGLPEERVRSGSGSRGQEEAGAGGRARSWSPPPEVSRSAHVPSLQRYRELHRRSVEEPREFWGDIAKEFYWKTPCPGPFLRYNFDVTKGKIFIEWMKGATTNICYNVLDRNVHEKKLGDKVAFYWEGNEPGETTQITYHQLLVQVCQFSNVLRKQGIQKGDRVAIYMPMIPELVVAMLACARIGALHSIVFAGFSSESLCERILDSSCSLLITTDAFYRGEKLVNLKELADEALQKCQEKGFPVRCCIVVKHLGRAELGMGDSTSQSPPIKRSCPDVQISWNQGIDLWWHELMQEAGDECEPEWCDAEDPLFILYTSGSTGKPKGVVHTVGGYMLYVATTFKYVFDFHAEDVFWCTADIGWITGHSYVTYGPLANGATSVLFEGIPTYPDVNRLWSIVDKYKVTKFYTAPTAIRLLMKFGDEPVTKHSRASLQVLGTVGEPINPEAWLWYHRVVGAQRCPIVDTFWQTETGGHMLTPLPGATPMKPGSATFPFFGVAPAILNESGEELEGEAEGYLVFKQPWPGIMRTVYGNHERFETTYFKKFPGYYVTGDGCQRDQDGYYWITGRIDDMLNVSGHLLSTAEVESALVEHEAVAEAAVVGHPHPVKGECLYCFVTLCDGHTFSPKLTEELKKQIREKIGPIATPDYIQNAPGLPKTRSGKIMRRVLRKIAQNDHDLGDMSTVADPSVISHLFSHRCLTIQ
Nature of the assay: SPR binding to immobilized ACSS2. To be noted: mean. As for the experimental part: Overproduction of ACSS2 was achieved using a prokaryotic expression system. […] The bacterial expressions were then spun down, the supernatant discarded, and the pellets resuspended in 50 mM Tris HCl pH8.0, 800 mM NaCl, 5 mM Imidazole, 2 mM MgCl2, 10% Glycerol, 0.1 mg/mL Lysozyme, 1 mM Protease inhibitor (PMSF). After the cells were lysed via sonication, the sample was subjected to ultracentrifugation, and the clarified lysate was applied to a 5 mL Talon cobalt resin affinity column (Clonetech Laboratories, Mountain View, CA). The bound protein was washed with 300 mL wash buffer 1 (20 mM Tris HCl pH8.0, 800 mM NaCl, 15 mM Imidazole, 5 mM MgCl2, 10% Glycerol, 0.1% CHAPS) and 300 mL wash buffer 2 (20 mM Tris HCl pH8.0, 400 mM NaCl, 18 mM Imidazole, 5 mM MgCl2, 10% Glycerol) prior elution with 20 mM Tris HCl pH8.0, 400 mM NaCl, 300 mM Imidazole, 2 mM MgCl2, 5% Glycerol. Eluted ACSS2 was then dialyzed overnight into 20 mM Tris HCl pH8.0, 150 mM NaCl, 5% Glycerol, concentrated and applied to a Superdex S-200 (16/600) using the same buffer without Glycerol. ACSS2 fractions were pooled, concentrated to 3 mg/mL, aliquoted, and stored at −80°C. hACSS1 was obtained from a commercial vendor (www.mybiosource.com).
All binding assays were performed on a ProteOn XPR36 SPR Protein Interaction Array System (Bio-Rad Laboratories, Hercules, CA, United States). The instrument temperature was set at 25°C for all kinetic analyses. ProteOn GLH sensor chips were preconditioned with two short pulses each (10 s) of 50 mM NaOH, 100 mM HCl, and 0.5% sodium […]. Then, the system was equilibrated with running buffer (1x PBS pH 7.4, 3% DMSO, and 0.005% polysorbate 20). The surface of a GLH sensor chip was activated with a 1:100 dilution of a 1:1 mixture of 1-ethyl-3-(3-dimethylaminopropyl) carbodiimide hydrochloride (0.2 M) and sulfo-N-hydroxysuccinimide (0.05 M). Immediately after chip activation, the human ACSS2 or hACSS1 proteins were prepared at a concentration of 10 μg/mL in 10 mM sodium acetate, pH 5.5, and injected across ligand flow channels for 5 min at a flow rate of 30 μL/min. Then, after unreacted protein had been washed out, excess active ester groups on the sensor surface were capped by a 5 min injection of 1M ethanolamine HCl (pH 8.0) at a flow rate of 5 μL/min. A reference surface was similarly created by immobilizing a nonspecific protein (IgG b12 anti-HIV-1 gp120; was obtained through the NIH AIDS Reagent Program, Division of AIDS, NIAID, NIH: Anti-HIV-1 gp120 Monoclonal (IgG1 b12) from Dr. Dennis Burton and Carlos Barbas) and was used as a background to correct nonspecific binding. […] Data were analyzed using the ProteOn Manager Software version 3.0 (Bio-Rad). The responses from the reference flow cell were subtracted to account for the nonspecific binding and injection artifacts. Experimental data were fitted to a simple 1:1 binding model. Experiments were performed in triplicate to detect kinetic and equilibrium dissociation constants (KD).

A word on the koff: it is the first-order rate constant of dissociation. A word on the kon: it is the second-order rate constant of association.

Each structure is given as a SMILES string. Where two headings read alike, the source gives them in different places.

In the case of `N[C@H](C(=O)N1CCCC(c2ccccc2)(c2ccccc2)C1)C1CC1` [AD-8007], the acetyl-CoA levels entry in assay [1] and in assay [2] was “significantly reduced acetyl-CoA levels” each time. Also, the lipid droplet content result in assay [3] was “significantly reduced lipid droplet content”. For the same compound, in assay [4] (1:1 binding model, n=3, read-out: koff), the koff worked out at 0.547 s⁻¹. In addition, the kon in assay [4] (1:1 binding model, n=3, read-out: kon) was found to be 4790 M⁻¹ s⁻¹. Also, the Kd in assay [4] (25°C, Langmuir isotherm equilibrium fit, n=3, read-out: KD equilibrium) came out at 117 µM; in assay [4] (global fit, n=3, read-out: KD kinetic/global), 149 µM.

Values taken from PMC11137182, “Selective and brain-penetrant ACSS2 inhibitors target breast cancer brain metastatic cells” (Frontiers in Pharmacology, 2024).
